# Assays:
# Assay type in all cases: cell-based
# [1] = test system: GRE-mediated gene transcription; assay: A549-GRE-Renilla luciferase reporter assay; conditions: A549-GRE-Renilla cells
# Excerpt: A synthetic GR responsive promoter consisting of three copies of the consensus glucocorticoid responsive element (GRE) (AGAACAnnnTGTACC) linked to a minimal herpes simplex thymidine kinase (HSV-TK) promoter was derived from the pGRE-SEAP plasmid purchased from Clontech. This was placed upstream of the Renilla luciferase reporter gene, contained in the pRLNull vector (Promega), to create the reporter construct p3GRE-renilla. The GRE containing promoter together with the renilla luciferase gene were then subcloned into the pcDNA3 vector, deleted of the CMV promoter, in order to generate the construct p3GRE-renilla-neo.
# (§1) A549 cells were maintained in 5% CO2 at 37° C. in DMEM containing 10% foetal calf serum and 2 mM L-glutamine. Cells were stably transfected with p5NFkB-firefly-neo, p3GRE-renilla-neo or pAPI-firefly-neo using electroporation procedure. […] These cell lines were maintained in DMEM containing 10% foetal calf serum, 2 mM L-glutamine and 1 mg/ml G418.
# (§2) Cells were plated into individual wells of a white 96-well viewplate at a cell density of 4×10^4/well in 100 μl of growth medium.
# This cell line will provide a means of measuring direct effects of glucocorticoid receptor agonists on GRE-mediated gene transcription.
# [2] = test system: AP-1 driven firefly-luciferase activity; assay: A549-AP1-firefly luciferase reporter assay; conditions: A549-AP1-firefly cells, stimulation with 10 ng/ml EGF
# Description: Similarly the minimal region of the Interleukin-2 promoter containing 4 AP-1 binding sites was cloned upstream of the firefly luciferase gene to generate pAP1-firefly-neo
# as §1, §2
# This cell line can therefore be used to monitor the repression of AP-1 signalling by glucocorticoid receptor ligands.
# [3] = test system: NFkB driven firefly luciferase activity; assay: A549-NFkB-firefly luciferase reporter assay (FireLITE); conditions: A549-NFkB-firefly cells, stimulation with 0.5 ng/ml TNFα
# Description: The firefly luciferase gene driven by a promoter containing five copies of the nuclear factor kB consensus sequence (GGGGACTTTCC) was derived from the pNF-kB-Luc plasmid, purchased from Stratagene, and subcloned into the pcDNA3 vector, deleted of the CMV promoter, in order to generate the construct p5NFkB-firefly-neo.
# as §1, §2
# The individual cell clones were first characterised for responsiveness in isolation.
molecule,measurement,setting,value
C[C@@H]1C[C@H]2[C@@H]3CCC4=CC(=O)C=C[C@]4(C)[C@@]3(F)[C@@H](O)C[C@]2(C)[C@@]1(O)C(=O)CO [dexamethasone],maximal stimulation above basal of renilla luciferase activity,[1],3 fold
EGF: stimulatory factor used to activate AP-1 driven transcription,increase in expression of firefly luciferase,[2],2.4 fold
TNFα,increase in firefly luciferase activity,[3],4.2 fold

# — patent US20030091978A1, “Assay for glucocorticoid receptor signalling pathway” (priority 2000, published 2003)
